Literature values in patent US6730319B2, “Pharmaceutical compositions having depressed melting points” (Hoffmann-La Roche Inc., priority 2001, dated 2004).

Conditions: in vivo

Cc1c(C)c2c(c(C)c1OC(=O)c1cccnc1)CC[C@@](C)(CCC[C@H](C)CCC[C@H](C)CCCC(C)C)O2 [alpha-tocopherol-nicotinate]
bioavailability increase in the fed status compared to the fasted state: 28 fold
